Three compounds from US20170101432A1, “CRYSTALLINE 3',5'-CYCLIC DIGUANYLIC ACID” (Yamasa Corporation, priority 2014, published 2017) can be followed below.

The data set in a line: Stability: storage at 50° C. in a desiccator containing saturated saline, HPLC purity measured. The following applies: for relative residual ratio: storage at 50° C., saturated saline desiccator. It is filed as physicochemical. Here is the method: Note that the high performance liquid chromatography method was performed under the following condition. Column: Hydrosphere C18 (product of YMC Co., Ltd.) Eluate: 0.1M TEA-P (pH 6.0) Detection method: detection by UV 260 nm The crystals of 3′,5′-cyclic diguanylic acid of the present invention and the co-crystals with cobalt and the co-crystals with magnesium of Reference Examples were stored at 50° C. in a desiccator containing saturated saline, and HPLC purity of each of them was measured on days 0, 7, 31, 84 and 167 after the start of storage. The result of measurement of HPLC purity (%) is shown in Table 5 below and relative residual ratios (%) on each day for measurement after the start of storage, taking the purity of day 0 of measurement as 100%, are shown in Table 6.

Where [1] appears, read: day 0, purity of day 0 taken as 100%.
Setting [2] is: day 0 after the start of storage at 50° C. in a desiccator containing saturated saline.
[3] abbreviates: day 7, purity of day 0 taken as 100%.
[4] abbreviates: day 7 of storage at 50° C. in a desiccator containing saturated saline.
The mark [5] stands for this setting: day 31, purity of day 0 taken as 100%.
[6] abbreviates: day 31 of storage at 50° C. in a desiccator containing saturated saline.
Setting [7] is: day 84, purity of day 0 taken as 100%.
[8] abbreviates: day 84 of storage at 50° C. in a desiccator containing saturated saline.
[9] abbreviates: day 167, purity of day 0 taken as 100%.
Setting [10] is: day 167 of storage at 50° C. in a desiccator containing saturated saline.

Consider `Nc1nc2c(ncn2C2OC3COP(=O)(O)OC4C(COP(=O)(O)OC3C2O)OC(n2cnc3c(=O)[nH]c(N)nc32)C4O)c(=O)[nH]1` (stereo not shown) [Co, 3′,5′-cyclic diguanylic acid], for which the relative residual ratio was found to be 100% under setting [1]; 100% under setting [3]; 99.8% under setting [5]; 99.8% under setting [7]; 99.6% under setting [9]. This compound also returned an HPLC purity under setting [2] of 99.9%; an HPLC purity under setting [4] of 99.9%; an HPLC purity under setting [6] of 99.7%; an HPLC purity under setting [8] of 99.7%; an HPLC purity under setting [10] of 99.4%.

Regarding `Nc1nc2c(ncn2C2OC3COP(=O)(O)OC4C(COP(=O)(O)OC3C2O)OC(n2cnc3c(=O)[nH]c(N)nc32)C4O)c(=O)[nH]1` (stereo not shown) [Mg, 3′,5′-cyclic diguanylic acid], the relative residual ratio under setting [1] is on record as 100%; the relative residual ratio under setting [3] was determined as 100%; the relative residual ratio under setting [5] worked out at 99.8%; the relative residual ratio under setting [7] came out at 100.0%; the relative residual ratio under setting [9] stood at 99.5%. The HPLC purity under setting [2] is on record as 99.8%; the HPLC purity under setting [4] was determined as 99.7%; the HPLC purity under setting [6] was found to be 99.6%; the HPLC purity under setting [8] came to 99.8%; the HPLC purity under setting [10] is reported as 99.3%.

For `Nc1nc2c(ncn2[C@@H]2O[C@@H]3COP(=O)(O)OC4C(O)[C@H](n5cnc6c(=O)[nH]c(N)nc65)O[C@@H]4COP(=O)(O)OC3C2O)c(=O)[nH]1` (stereo partly shown) [Present Invention, 3′,5′-cyclic diguanylic acid], the “decrease rate of HPLC purity” value (after storing at 50° C. for 167 days in a desiccator containing saturated saline) is reported as “less than 1%”. Also, the relative residual ratio amounted to 100% under setting [1]; 100.1% under setting [3]; 99.6% under setting [5]; 99.9% under setting [7]; 100.0% under setting [9]. For the same compound, the HPLC purity reads like this: under setting [2], 99.0%; under setting [4], 99.1%; under setting [6], 98.6%; under setting [8], 98.9%; under setting [10], 98.9%.
